Assay results: the supplement of paper PMC13380429

Legend:
Settings in all cases: 72 h
Vero E6 [1] = experiment: cell viability relative to DMSO; higher = less toxic
U2OS [2] = experiment: as above
Calu-3 [3] = experiment: as above
HepG2 [4] = experiment: as above
Caco-2 [5] = experiment: as above
Vero E6 [6] = experiment: drug sensitivity score (DSS) for viability; higher = more toxic; extreme values may be limits of the assay
U2OS [7] = experiment: as above
Calu-3 [8] = experiment: as above
HepG2 [9] = experiment: as above
Caco-2 [10] = experiment: as above
Vero E6 [11] = experiment: relative viability EC50 (midpoint between 100% and the lowest measured viability); higher = less toxic
U2OS [12] = experiment: as above
Calu-3 [13] = experiment: as above
HepG2 [14] = experiment: as above
Caco-2 [15] = experiment: as above

Structure (SMILES)	cell viability (Vero E6 [1]; 1 nM)	cell viability (Vero E6 [1]; 10 nM)	cell viability (Vero E6 [1]; 100 nM)	cell viability (Vero E6 [1]; 1000 nM)	cell viability (Vero E6 [1]; 10000 nM)	cell viability (U2OS [2]; 1 nM)	cell viability (U2OS [2]; 10 nM)	cell viability (U2OS [2]; 100 nM)	cell viability (U2OS [2]; 1000 nM)	cell viability (U2OS [2]; 10000 nM)	cell viability (Calu-3 [3]; 1 nM)	cell viability (Calu-3 [3]; 10 nM)	cell viability (Calu-3 [3]; 100 nM)	cell viability (Calu-3 [3]; 1000 nM)	cell viability (Calu-3 [3]; 10000 nM)	cell viability (HepG2 [4]; 1 nM)	cell viability (HepG2 [4]; 10 nM)	cell viability (HepG2 [4]; 100 nM)	cell viability (HepG2 [4]; 1000 nM)	cell viability (HepG2 [4]; 10000 nM)	cell viability (Caco-2 [5]; 1 nM)	cell viability (Caco-2 [5]; 10 nM)	cell viability (Caco-2 [5]; 100 nM)	cell viability (Caco-2 [5]; 1000 nM)	cell viability (Caco-2 [5]; 10000 nM)	drug sensitivity score (Vero E6 [6])	drug sensitivity score (U2OS [7])	drug sensitivity score (Calu-3 [8])	drug sensitivity score (HepG2 [9])	drug sensitivity score (Caco-2 [10])	relative viability EC50 (Vero E6 [11])	relative viability EC50 (U2OS [12])	relative viability EC50 (Calu-3 [13])	relative viability EC50 (HepG2 [14])	relative viability EC50 (Caco-2 [15])
CN1C(=O)COc2c(C(=O)NC3CN4CCC3CC4)cc(Cl)cc21 (stereo not given) [azasetron]	102%	94.4%	91.8%	86.2%	105%	101%	91.4%	95.6%	99%	99.2%	91.4%	93.1%	103%	110%	111%	91.6%	99%	87.9%	94.5%	96.2%	98.4%	94.9%	96.6%	98.7%	98.5%	0	0	0	0	0	> 10 µM	> 10 µM	> 10 µM	> 10 µM	> 10 µM
O=C(O)c1ccc(N2N=C(Cc3ccccc3)/C(=C\c3ccc(-c4ccccc4F)o3)C2=O)cc1 [GS-143]	106%	99%	99.9%	101%	82.7%	105%	106%	101%	104%	98.8%	102%	99.1%	101%	105%	99.8%	107%	110%	95.4%	95.8%	105%	103%	104%	99.2%	93.8%	87.5%	0.3	0	0	0	0.2	> 10 µM	> 10 µM	> 10 µM	> 10 µM	> 10 µM
C[C@@H](Oc1ccc2[nH]nc(/C=C/c3cnn(CCO)c3)c2c1)c1c(Cl)cncc1Cl	95.3%	92.4%	98.6%	71.9%	12.7%	94.3%	94.3%	91%	33.5%	0.2%	101%	99.9%	98.6%	75.5%	31.8%	108%	102%	85.5%	46.4%	10.6%	87.3%	99.5%	91.5%	83.3%	33.1%	8.9	14	7.2	12.1	6.1	1.35 µM	0.582 µM	1.26 µM	0.617 µM	1.61 µM
Nc1ncnc2c1C(=O)N(c1ccc([C@H]3CC[C@H](CC(=O)O)CC3)cc1)CCO2	98%	103%	93.7%	107%	107%	104%	99.6%	109%	102%	97.5%	107%	99.7%	109%	105%	110%	91.2%	101%	95.3%	117%	92.3%	100%	90.6%	95.3%	98.1%	104%	0	0	0	0	0	> 10 µM	> 10 µM	> 10 µM	> 10 µM	> 10 µM
CC(C)c1cc(-c2n[nH]c(=O)n2-c2ccc3c(ccn3C)c2)c(O)cc1O [ganetespib]	101%	107%	46.3%	25.9%	29.1%	98.4%	96.7%	3.7%	3.4%	1.5%	91.5%	95.9%	47.8%	35.7%	32.5%	97.7%	56.6%	2.3%	1.2%	1.1%	99.9%	95.4%	37.4%	35.2%	29.3%	19.9	30.2	19.1	35.3	21.3	0.0685 µM	0.0307 µM	0.0478 µM	0.0114 µM	0.0369 µM
CC(C)S(=O)(=O)NC[C@H](C)c1ccc(-c2ccc(CCNS(C)(=O)=O)cc2)cc1 [mibampator]	90.8%	98%	95.1%	94%	95.6%	99.1%	102%	100%	104%	94.1%	101%	107%	99.9%	99.9%	86.2%	107%	105%	101%	88.2%	32.6%	96.4%	100%	101%	103%	83%	0	0	0.2	5.7	0.3	> 10 µM	> 10 µM	> 10 µM	1.85 µM	> 10 µM
CC(C)(C)c1ccc2cc(C#N)c(C#N)cc2c1 [BRD9876]	98.5%	104%	99.2%	99.4%	97.8%	101%	106%	95.6%	99.8%	94.9%	103%	100%	90.2%	95.8%	85.9%	97.7%	98.8%	90.7%	89.9%	97.6%	99%	98.6%	102%	96%	89%	0	0	0.2	0	0.1	> 10 µM	> 10 µM	> 10 µM	> 10 µM	> 10 µM
COCc1nc2c([nH]1)c(=O)n(C)c(=O)n2CC(C)C [MMPX]	97.8%	94.2%	99.2%	97.5%	99.2%	95.8%	100%	96.4%	104%	98.2%	102%	100%	98.1%	103%	96%	98%	94%	101%	94.9%	100%	91.8%	91.8%	96.9%	95.7%	96.3%	0	0	0	0	0	> 10 µM	> 10 µM	> 10 µM	> 10 µM	> 10 µM
CN(C)C/C=C/C(=O)Nc1ccc(C(=O)Nc2cccc(Nc3ncc(Cl)c(-c4c[nH]c5ccccc45)n3)c2)cc1 [THZ1]	103%	101%	99.4%	44.4%	11.4%	97%	102%	58.2%	6.2%	4.9%	96.1%	97%	71.8%	39.6%	40.7%	108%	87.2%	10%	5.4%	4.8%	95.6%	104%	88.9%	36.9%	37%	11.5	22.6	14.4	30.2	13.5	0.811 µM	0.11 µM	0.107 µM	0.0248 µM	0.185 µM
CCCNC(C)C(=O)Nc1c(C)csc1C(=O)OC (stereo not given) [articaine]	93.4%	93.1%	96.1%	97.3%	108%	96.5%	95.8%	99.7%	92.8%	105%	94%	94.6%	100%	93.5%	106%	97.9%	105%	110%	104%	112%	98.5%	96.7%	95.2%	104%	105%	0	0	0	0	0	> 10 µM	> 10 µM	> 10 µM	> 10 µM	> 10 µM
CO[C@H]1/C=C/O[C@@]2(C)Oc3c(C)c(O)c4c(O)c(c(/C=N/N5CCN(C6CCCC6)CC5)c(O)c4c3C2=O)NC(=O)/C(C)=C\C=C\[C@H](C)[C@H](O)[C@@H](C)[C@@H](O)[C@@H](C)[C@H](OC(C)=O)[C@@H]1C [rifapentine]	96.2%	93.7%	97%	89.1%	97.7%	96.3%	103%	95.3%	100%	85.7%	101%	104%	94.4%	111%	88.2%	96.4%	92.9%	94%	97.7%	89.3%	95.2%	94.9%	94.4%	102%	77.6%	0	0.2	0	0	0.7	> 10 µM	> 10 µM	> 10 µM	> 10 µM	> 10 µM
Cc1ccc(C(=O)Nc2ccc(CN3CCN(C)CC3)c(C(F)(F)F)c2)cc1C#Cc1cnc2[nH]ncc2c1 [GZD824]	103%	102%	86.5%	19.1%	0.2%	99.5%	104%	77.5%	32.5%	0.3%	96.7%	86.8%	76.8%	45.9%	3.7%	106%	98.8%	71.2%	27.1%	0.4%	102%	98.6%	86.7%	59%	2.4%	16.6	15.4	13.9	17.2	10.1	0.365 µM	0.42 µM	0.497 µM	0.297 µM	1.17 µM
Brc1ccc(NC2C3CC4CC(C3)CC2C4)cc1 (stereo not given) [bromantan]	101%	100%	99.5%	108%	98.8%	102%	99.6%	101%	96.9%	101%	89.6%	90.6%	98.3%	102%	87.9%	105%	100%	92%	106%	94.3%	104%	95.9%	104%	99.9%	92.8%	0	0	0	0	0	> 10 µM	> 10 µM	> 10 µM	> 10 µM	> 10 µM
N#Cc1cnc2cnc(NCc3cccnc3)cc2c1Nc1ccc(F)c(Cl)c1 [TC-S-7006]	97.2%	94.1%	94%	85.8%	95.4%	96.3%	106%	96.1%	96.8%	85.2%	96.6%	96.8%	96.9%	91.8%	89%	102%	93%	107%	91.2%	50%	93.3%	99%	91.1%	88.3%	75.6%	0	0.4	0	4.1	1.9	> 10 µM	> 10 µM	> 10 µM	1.85 µM	> 10 µM
